Laboratory results as given in patent publication US20180312473A1, “PHENAZINE DERIVATIVES AS ANTIMICROBIAL AGENTS” (priority 2015, published 2018).
≈ marks a conversion by molar mass, not a printed value. Read-outs that look alike come from different tables or passages of the source.

Legend:
[1] = test system: MRSA-2 (methicillin-resistant Staphylococcus aureus clinical isolate); assay: MIC assay (broth microdilution, CLSI); format: cell-based; settings: for MIC: read-out: MIC, MRSA-2
[2] = test system: MRSA-1 (methicillin-resistant Staphylococcus aureus clinical isolate); assay: MIC assay (broth microdilution, CLSI); format: cell-based; settings: read-out: MIC, MRSA-1
[3] = test system: Staphylococcus epidermidis (ATCC 12228); assay: MIC assay (broth microdilution, CLSI); format: cell-based; settings: Staphylococcus epidermidis
human red blood cells = assay: Hemolysis assay with red blood cells; settings: 200 μM
Description: The hemolysis activities of select compounds of the invention were determined. […] The washing was repeated three times with the buffer. In 96-well plate, test compounds were added to the buffer from DMSO stocks. […] The plate was then incubated for 1 hour at 37° C. After incubation, the plate was centrifuged for 5 minutes at 3,500 rpm. Then 80 μL of the supernatant was transferred to another 96-well plate, and the optical density (OD) was read at 405 nm. DMSO served as the negative control (0% hemolysis), while Triton X served as the positive control (100% hemolysis). The percent of hemolysis was calculated as (OD405 of the compound−OD405 of DMSO)/(OD405 of Triton X−OD405 of the buffer).
The washing was repeated three times with the buffer. In 96-well plate, test compounds were added to the buffer from DMSO stocks. […] The plate was then incubated for 1 hour at 37° C. After incubation, the plate was centrifuged for 5 minutes at 3,500 rpm. Then 80 μL of the supernatant was transferred to another 96-well plate and the optical density (OD) was read at 405 nm. DMSO served as our negative control (0% hemolysis) while Triton X served as our positive control (100% hemolysis). The percent of hemolysis was calculated as (OD405 of the test compound−OD405 DMSO)/(OD405 Triton X−OD405 buffer) from three independent experiments.

[4] = test system: MRSA-2 planktonic cells and biofilms; assay: Calgary Biofilm Device (CBD) assay, MBC/MBEC; format: cell-based, Staphylococcus aureus; settings: for MBC: Staphylococcus aureus, MRSA
A. baumannii 19606 = assay: MIC assay (broth microdilution, CLSI); format: cell-based, Acinetobacter baumannii
P. aeruginosa (PAO1) = assay: MIC assay (broth microdilution, CLSI); format: cell-based
K. pneumoniae 13883 = assay: MIC assay (broth microdilution, CLSI); format: cell-based, Klebsiella pneumoniae
E. coli UAEC-1 = assay: MIC assay (broth microdilution, CLSI); format: cell-based
MRSA BAA-1707 = assay: MIC assay (broth microdilution, CLSI); settings: Staphylococcus aureus, read-out: MIC, MRSA BAA-1707
MRSA BAA-44 = assay: MIC assay (broth microdilution, CLSI); settings: Staphylococcus aureus, read-out: MIC, MRSA BAA-44
[5] = test system: Enterococcus faecium (ATCC 700221), VRE; assay: MIC assay (broth microdilution, CLSI); format: cell-based
[6] = test system: M. tuberculosis H37Ra (ATCC 25177); assay: Mycobacterium tuberculosis MIC assay; format: cell-based; settings: Table 7, read-out: MIC, M. tuberculosis H37Ra
Description: (§1) The culture was then diluted with fresh medium until an OD600 of 0.01 was reached. […] The final DMSO concentration was maintained at 0.5%. […] Three rows were reserved for each compound. […] OD600 absorbance was recorded using SPECTRAMAX M5 (Molecular Devices). Data obtained from three independent experiments were analyzed using Excel.
as §1, with “EXCEL.” for “Excel.”

in vitro = format: cell-based; settings: human
Description: The cytotoxicities of select compounds of the invention against HeLa cells were determined. HeLa cytotoxicity was assessed using the LDH release assay described by CYTOTOX96 (Promega G1780). HeLa cells were grown in Dulbecco's Modified Eagle Medium (DMEM; Gibco) supplemented with 10% Fetal Bovine Serum (FBS) at 37° C. with 5% CO2. […] Triton X-100 (at 2% v/v) was used as the positive control for maximum lactate dehydrogenate (LDH) activity in this assay (e.g., complete cell death), while “medium only” lanes served as negative control lanes (e.g., no cell death). DMSO was used as the vehicle control. […] Finally, Stop Solution (50 μL) was added to the incubating plates, and the absorbance was measured at 490 nm.
HeLa cytotoxicity was assessed using the LDH release assay described by CYTOTOX96 (Promega G1780). HeLa cells were grown in Dulbecco's Modified Eagle Medium (DMEM; Gibco) supplemented with 10% Fetal Bovine Serum (FBS) at 37° C. with 5% CO2. […] Triton X-100 (at 2% v/v) was used as the positive control for maximum lactate dehydrogenate (LDH) activity in this assay (e.g., complete cell death), while “medium only” lanes served as negative control lanes (e.g., no cell death). DMSO was used as our vehicle control. […] Finally, Stop Solution (50 μL) was added to the incubating plates and the absorbance was measured at 490 nm. Results are from three independent experiments (FIG. 19)

[7] = test system: MRSE (S. epidermidis ATCC 35984) planktonic cells and biofilms; assay: Calgary Biofilm Device (CBD) assay, MBC/MBEC; format: cell-based, Staphylococcus epidermidis; settings: Staphylococcus epidermidis; Table 8; read-out: MRSE 35984 MBC
[8] = ATCC12228, Table 2A, read-out: MIC, Staphylococcus epidermidis (ATCC 12228)
[9] = ATCC12228, Table 7, b lowest concentration tested, read-out: MIC, S. epidermidis 12228
[10] = Enterococcus faecium, Table 2A, read-out: MIC, Enterococcus faecium (ATCC 700221)
[11] = Table 7, b lowest concentration tested, read-out: MIC, VRE 700221
[12] = Table 8, a/b 2-/4-fold range in independent experiments, read-out: MRSA-2 MBC
[13] = Acinetobacter baumannii, 19606; read-out: A. baumannii 19606 MIC
[14] = Pseudomonas aeruginosa, PAO1; read-out: PAO1 MIC
[15] = Klebsiella pneumoniae, 13883; read-out: K. pneumoniae 13883 MIC
[16] = Escherichia coli, UAEC1; read-out: E. coli UAEC-1 MIC

SMILES | MIC (MRSA BAA-44) | MIC [3, 8] | MIC [3, 9] | MIC [5, 10] | MIC [5, 11] | % Hemolysis (200 μM) (human red blood cells; human, 1 h, pH 7.2) | % Hemolysis at 200 μM (human red blood cells; human, 1 h, pH 7.2) | MBC ([4]; Table 4, read-out: MBC, MRSA-2) | MBC [4, 12] | MIC (A. baumannii 19606; [13]) | MIC (P. aeruginosa (PAO1); [14]) | MIC (K. pneumoniae 13883; [15]) | MIC (E. coli UAEC-1; [16]) | other results
Oc1c(Br)cc(Br)c2nc3cc4ccccc4cc3nc12 [Compound 19] | 75 µM (≈ 30.3 µg/mL) |  |  |  |  |  |  |  |  |  |  |  |  | MIC ([1]; Staphylococcus aureus, MRSA): > 100 µM; MIC, MRSA-2 ([1]; Table 2B, a midpoint of 2-fold range, * partial growth inhibition at highest concentration): >100* μM; MIC ([1]; Table 7, a midpoint of 2-fold range, b lowest concentration tested): >100 µM; MIC ([2]; Staphylococcus aureus, MRSA): 12.5 µM (≈ 5.05 µg/mL); MIC ([2]; Table 2B, b lowest concentration tested): 12.5 µM (≈ 5.05 µg/mL); MIC ([3]; ATCC12228, read-out: MIC, S. epidermidis 12228): 12.5 µM (≈ 5.05 µg/mL); MIC ([3]; ATCC12228, read-out: MIC, Staphylococcus epidermidis (ATCC 12228)): 12.5 µM (≈ 5.05 µg/mL); % Hemolysis (200 μM) (human red blood cells; 1 h, 37 °C): ≤1%; % Hemolysis at 200 μM (human red blood cells; red blood cells): <1%; % Hemolysis at 200 μM (human red blood cells; Table 8, human red blood cells): ≤1%; MBC ([4]; read-out: MBC, MRSA-2): 200 µM (≈ 80.8 µg/mL); MBC ([4]; read-out: MRSA-2 MBC): 200 µM (≈ 80.8 µg/mL); MRSA-2 MBC ([4]; Table 8, a/b 2-/4-fold range in independent experiments): 200/>200 μM; MIC (A. baumannii 19606; Acinetobacter baumannii, 19606, read-out: A. baumannii 19606 MIC): > 100 µM; MIC (P. aeruginosa (PAO1); Pseudomonas aeruginosa, PAO1, read-out: PAO1 MIC): > 100 µM; MIC (K. pneumoniae 13883; Klebsiella pneumoniae, 13883, read-out: K. pneumoniae 13883 MIC): > 100 µM; MIC (E. coli UAEC-1; Escherichia coli, UAEC1, read-out: E. coli UAEC-1 MIC): > 100 µM; MIC (MRSA BAA-1707): 50 µM (≈ 20.2 µg/mL)
Cc1nc2c(Br)cc(Br)c(O)c2nc1C [Compound 27] | 6.25 µM (≈ 2.07 µg/mL) | 12.5 µM (≈ 4.15 µg/mL) | 12.5 µM (≈ 4.15 µg/mL) | 25 µM (≈ 8.3 µg/mL) | 25 µM (≈ 8.3 µg/mL) | ≤1% | ≤1% | 125 µM (≈ 41.5 µg/mL) | 125 µM (≈ 41.5 µg/mL) | > 100 µM | > 100 µM | > 100 µM | > 100 µM | 
Cc1nc2c(I)cc(I)c(O)c2nc1C [Compound 28] |  | 1.56 to 3.13 µM (≈ 0.665 to 1.33 µg/mL) | 2.35 µM (≈ 1 µg/mL) | 6.25 µM (≈ 2.66 µg/mL) | 6.25 µM (≈ 2.66 µg/mL) | 1.2% | 1.2% | 93.8 µM (≈ 40 µg/mL) | 93.8 µM (≈ 40 µg/mL) | > 100 µM | > 100 µM | > 100 µM | > 100 µM | MIC ([6]; Mycobacterium tuberculosis): > 50 µM; MIC [6]: >50 µM; IC50 at 24 h (in vitro): > 100 µM; MBC [7]: 23.5 µM (≈ 10 µg/mL)
